Results published in paper PMC7394103 (Frontiers in Pharmacology, 2020).

Tests used:
AChE = biological target: T1, AChE (Homo sapiens, UniProt P22303); experiment: AChE inhibition assay (Ellman-based kit); format: biochemical; conditions: concentration causing 30% inhibition
T1 construct: purchased Sigma-Aldrich
Experimental: The inhibitory effect of test compounds on AChE activity was performed using an AChE inhibitor screening kit from Sigma-Aldrich. The kit is based on an improved Ellman method, whereby thiocholine produced from AChE activity forms a yellow color with 5,5’-dithiobis(2-nitrobenzoic acid), and the intensity the color (412 nm) is proportional to enzyme activity. […] IC30 was obtained by graphing the % inhibition of enzyme activity versus the logarithm of concentration of test compound using 5–7 tested concentrations.

MMP-1 secretion by HUVEC = experiment: IL-1β-induced MMP-1 secretion by HUVEC (ELISA); format: cell-based; conditions: Homo sapiens, 30 min compound, then 5 ng/ml IL-1β, 24 h
Experimental: (§1) FLS, HUVEC, SW982, and THP-1 cells were plated in 96 well plates (10^4 to 10^5 cells/well) for 48 h before treatment. At 2 days post-confluency, the cells were serum-starved and washed twice (with the exception of THP-1 cell, which were not washed) with FBS-free medium prior to the addition of test compounds. The cells were incubated in the presence or absence of test compounds or DMSO (vehicle control) for 30 min at 37°C in a 5% CO2 atmosphere, IL-1β (5 ng/ml) was added, and the cells were incubated for an additional 24 h. Culture supernatants were collected and stored at –80°C. The levels of MMP-1 and MMP-3 were determined in culture supernatants using commercially available ELISA kits according to the manufacturer’s instructions (R&D System, Minneapolis, MN, USA). IL-6 levels were also determined in the supernatants using a human IL-6 ELISA kit (BD Biosciences, San Jose, CA, USA).

[1] = Cytotoxicity assay (CellTiter-Glo), SW982; format: cell-based; conditions: human, SW982 cells; concentrations up to 50 µM; read-out: Cytotoxic effect SW982 IC50
Experimental: (§2) Cytotoxicity was analyzed using a CellTiter-Glo Luminescent Cell Viability Assay Kit (Promega), according to the manufacturer’s protocol. Briefly, cells were cultured at a density of 10^4 to 10^5 cells/well with different concentrations of test compounds (final concentration of DMSO was 1%) for the indicated periods of time (2, 12, or 24 h) at 37°C and 5% CO2. Following treatment, substrate was added to the cells, and the samples were analyzed with a Fluoroscan Ascent FL microplate reader.

JNK3 = biological target: JNK3; parameters: method as in Schepetkin et al., 2019; conditions: previously reported binding affinity; ref Schepetkin et al., 2019; cited from earlier work
MMP-1 secretion by FLS = experiment: IL-1β-induced MMP-1 secretion by FLS (ELISA); format: cell-based; conditions: Homo sapiens; 30 min compound, then 5 ng/ml IL-1β, 24 h
From the text: This study was approved by the Institutional Review Board of University of California, San Diego School of Medicine (La Jolla, CA, USA). Informed consent was obtained from all participants. Anonymous synovial tissue samples were obtained from six patients with RA at the time of total joint replacement (5 females, 1 male; age range, 44–72 years), as previously described ([Alvaro-Gracia et al., 1990]). The diagnosis of RA conformed to American College of Rheumatology 1987 revised criteria ([Arnett et al., 1988]). The synovium was minced and incubated with collagenase type VIII (0.5 mg/ml) (Sigma-Aldrich) in serum-free RPMI-1640 (Life Technologies, Grand Island, NY, USA) for 2 h at 37°C, filtered, extensively washed, and cultured in DMEM (Life Technologies) supplemented with 10% FBS (Gemini Bio Products, Calabasas, CA, USA), penicillin, streptomycin, gentamicin, and glutamine in a humidified 5% CO2 atmosphere. […]
FLS, HUVEC, SW982, and THP-1 cells were plated in 96 well plates (10^4 to 10^5 cells/well) for 48 h before treatment. […] The levels of MMP-1 and MMP-3 were determined in culture supernatants using commercially available ELISA kits according to the manufacturer’s instructions (R&D System, Minneapolis, MN, USA). IL-6 levels were also determined in the supernatants using a human IL-6 ELISA kit (BD Biosciences, San Jose, CA, USA).

LN cells from CIA mice = experiment: CII-induced cytokine production by LN cells from treated CIA mice; format: in vivo; conditions: 30 mg/kg; for IL-10 production by LN cells / proinflammatory cytokines (IL-1β, IL-5, IL-6, IL-17A, TNF, GM-CSF, RANKL) by LN cells: cells cultured 72 h with CII, vs saline
Experimental: At the end of the study (day 44), we isolated the axillary, inguinal, and popliteal LN and purified mononuclear cells from the LN. These cells were cultured in 6-well plates (5 × 10^6 cells/ml) without or with 50 μg/ml CII for 3 days in RPMI-1640 medium supplemented with 10% of fetal bovine serum (FBS) (Invitrogen, Carlsbad, CA, USA), 2 mM l-glutamine, 100 U/ml penicillin, 100 μg/ml streptomycin, 1 mM sodium pyruvate, and 0.1 mM nonessential amino acids ([Kochetkova et al., 2008]). The levels of cytokines, including tumor necrosis factor (TNF), granulocyte-macrophage colony-stimulating factor (GM-CSF), IL-1β, IL-5, IL-6, IL-10, IL-17A, and receptor activator of nuclear factor-κB ligand (RANKL) were measured in LN culture supernatants using ELISA kits (BD Biosciences, San Jose, CA, USA) for mouse cytokines.

JNK1 = biological target: JNK1; parameters: method as in Schepetkin et al., 2019; conditions: previously reported binding affinity; ref Schepetkin et al., 2019; cited from earlier work
IL-6 secretion by HUVEC = experiment: IL-1β-induced IL-6 secretion by HUVEC (ELISA); format: cell-based; conditions: Homo sapiens, 30 min compound, then 5 ng/ml IL-1β, 24 h
Experimental: as §1

[2] = Cytotoxicity assay (CellTiter-Glo), FLS; format: cell-based, human; conditions: both sexes, human; concentrations up to 50 µM; read-out: Cytotoxic effect FLS IC50
From the text: (§3) This study was approved by the Institutional Review Board of University of California, San Diego School of Medicine (La Jolla, CA, USA). Informed consent was obtained from all participants. Anonymous synovial tissue samples were obtained from six patients with RA at the time of total joint replacement (5 females, 1 male; age range, 44–72 years), as previously described ([Alvaro-Gracia et al., 1990]). The diagnosis of RA conformed to American College of Rheumatology 1987 revised criteria ([Arnett et al., 1988]). The synovium was minced and incubated with collagenase type VIII (0.5 mg/ml) (Sigma-Aldrich) in serum-free RPMI-1640 (Life Technologies, Grand Island, NY, USA) for 2 h at 37°C, filtered, extensively washed, and cultured in DMEM (Life Technologies) supplemented with 10% FBS (Gemini Bio Products, Calabasas, CA, USA), penicillin, streptomycin, gentamicin, and glutamine in a humidified 5% CO2 atmosphere. Cells were allowed to adhere overnight, nonadherent cells were removed, and adherent fibroblast-like synoviocytes (FLS) were split at 1:3 when 70%–80% confluent. FLS were used from passages 3 through 9, during which time they are a homogeneous population of cells (<1% CD11b positive, <1% phagocytic, and <1% FcγRII and FcγRIII receptor positive).
(§4) Cytotoxicity was analyzed using a CellTiter-Glo Luminescent Cell Viability Assay Kit (Promega), according to the manufacturer’s protocol. […] Following treatment, substrate was added to the cells, and the samples were analyzed with a Fluoroscan Ascent FL microplate reader.

FLS = experiment: Cytotoxicity assay (CellTiter-Glo), FLS; format: cell-based, human; conditions: during the 90-min period of the c-Jun assay
From the text: as §3, §4

MMP-3 secretion by HUVEC = experiment: IL-1β-induced MMP-3 secretion by HUVEC (ELISA); format: cell-based; conditions: Homo sapiens, 30 min compound, then 5 ng/ml IL-1β, 24 h
Experimental: as §1

[3] = system: MMP-3 secretion by SW982 cells; experiment: IL-1β-induced MMP-3 secretion by SW982 cells (ELISA); format: cell-based; conditions: Homo sapiens, 30 min compound, then 5 ng/ml IL-1β, 24 h
Experimental: as §1

[4] = Cytotoxicity assay (CellTiter-Glo), THP-1; format: cell-based; conditions: human, THP-1 cells; concentrations up to 50 µM; read-out: Cytotoxic effect THP-1 IC50
Experimental: as §2

T1 sequence (P22303 32-614): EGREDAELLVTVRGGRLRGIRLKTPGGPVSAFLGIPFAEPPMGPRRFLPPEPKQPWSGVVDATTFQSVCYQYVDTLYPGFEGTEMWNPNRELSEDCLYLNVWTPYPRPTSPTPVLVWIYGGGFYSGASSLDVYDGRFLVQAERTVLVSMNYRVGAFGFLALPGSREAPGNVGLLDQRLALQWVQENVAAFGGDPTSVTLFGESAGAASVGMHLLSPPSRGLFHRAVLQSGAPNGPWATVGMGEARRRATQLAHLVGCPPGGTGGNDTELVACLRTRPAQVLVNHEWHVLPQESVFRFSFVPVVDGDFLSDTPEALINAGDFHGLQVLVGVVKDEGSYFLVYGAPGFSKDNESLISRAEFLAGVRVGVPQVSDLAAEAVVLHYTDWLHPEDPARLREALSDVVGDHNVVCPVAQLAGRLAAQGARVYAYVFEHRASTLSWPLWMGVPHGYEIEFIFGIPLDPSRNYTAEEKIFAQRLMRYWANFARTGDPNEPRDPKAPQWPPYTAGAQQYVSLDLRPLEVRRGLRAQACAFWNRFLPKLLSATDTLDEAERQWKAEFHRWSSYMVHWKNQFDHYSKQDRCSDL

Structure (SMILES) | AChE inhibition IC30 (AChE) | IC50 (MMP-1 secretion by HUVEC) | IC50 [1] | JNK3 Kd (JNK3) | IC50 (MMP-1 secretion by FLS) | IL-10 production by LN cells (LN cells from CIA mice) | proinflammatory cytokines (IL-1β, IL-5, IL-6, IL-17A, TNF, GM-CSF, RANKL) by LN cells (LN cells from CIA mice) | Kd (JNK1) | IC50 (IL-6 secretion by HUVEC) | IC50 [2] | FLS viability (FLS) | IC50 (MMP-3 secretion by HUVEC) | IC50 [3] | IC50 [4] | IL-17A, GM-CSF and RANKL production by LN cells (LN cells from CIA mice; compared to mice treated with TRYP)
O=C1c2ccccc2-n2c1nc1ccccc1c2=O [TRYP, indolo[2,1-b]quinazolin-6,12-dione] | 4.2 ± 1.2 µM | 3.4 ± 1.1 µM | 19.1 ± 4.9 µM | No binding | 1.2 ± 0.4 µM | higher | significantly reduced | 23 µM | 6.4 ± 2.7 µM | 16.7 ± 1.6 µM | neither TRYP nor TRYP-Ox affected FLS viability | 12.8 ± 4.4 µM | 8.7 ± 0.3 µM | 18.2 ± 2.3 µM | –
O=c1c2ccccc2nc2n1-c1ccccc1/C2=N/O [TRYP-Ox, tryptanthrin-6-oxime] | 12.0 ± 3.9 µM | 2.9 ± 0.1 µM | > 50 µM | – | 0.7 ± 0.1 µM | higher | significantly reduced | – | 0.9 ± 0.3 µM | > 50 µM | neither TRYP nor TRYP-Ox affected FLS viability | 15.9 ± 5.8 µM | 1.4 ± 0.1 µM | > 50 µM | significantly lower
